Assay results reported in US11168073B2, “3,3-difluoroallylamines or salts thereof and pharmaceutical compositions comprising the same” (YUHAN CORPORATION, priority 2018, dated 2021).
Counter-ions that a name gives are not always drawn.

How the values were obtained:
Type in all cases: biochemical
[1] = target: T1, recombinant human VAP-1 (Homo sapiens, UniProt Q16853); test: Activity evaluation on recombinant human VAP-1 (Amplex Red/HRP-coupled hydrogen peroxide assay, benzylamine substrate); conditions: recombinant human VAP-1, benzylamine substrate; read-out: Inhibitory Activity (IC50, nM) human VAP-1
T1 construct: purchased R&D systems
T1 sequence (Q16853 1-763): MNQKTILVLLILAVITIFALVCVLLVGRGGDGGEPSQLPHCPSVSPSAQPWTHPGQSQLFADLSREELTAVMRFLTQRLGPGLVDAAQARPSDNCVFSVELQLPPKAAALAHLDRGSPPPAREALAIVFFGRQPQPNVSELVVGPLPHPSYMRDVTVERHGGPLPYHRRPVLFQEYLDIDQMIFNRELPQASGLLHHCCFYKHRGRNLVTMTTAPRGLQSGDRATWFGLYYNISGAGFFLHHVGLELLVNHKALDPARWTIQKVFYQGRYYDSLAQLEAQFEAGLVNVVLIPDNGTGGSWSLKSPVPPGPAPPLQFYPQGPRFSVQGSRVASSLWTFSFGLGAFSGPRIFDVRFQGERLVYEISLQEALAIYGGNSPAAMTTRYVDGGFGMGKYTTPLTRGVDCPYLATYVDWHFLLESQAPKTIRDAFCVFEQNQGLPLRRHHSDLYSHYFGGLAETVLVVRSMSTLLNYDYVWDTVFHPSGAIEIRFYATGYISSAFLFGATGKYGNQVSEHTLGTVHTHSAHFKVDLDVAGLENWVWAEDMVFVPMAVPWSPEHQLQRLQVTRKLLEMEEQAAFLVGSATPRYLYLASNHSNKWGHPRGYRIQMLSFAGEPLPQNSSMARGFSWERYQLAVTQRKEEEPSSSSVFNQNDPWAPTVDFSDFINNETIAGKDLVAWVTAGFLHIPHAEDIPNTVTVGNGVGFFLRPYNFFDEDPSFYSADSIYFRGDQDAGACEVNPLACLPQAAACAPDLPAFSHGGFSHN
Summary of the method: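 Recombinant human VAP-1 in 50 mM sodium phosphate pH 7.4 preincubated 30 min at 37 °C with compound (8-point 1:3 series, <1% DMSO), then 1 mM benzylamine, 200 uM Amplex Red, 1 U/mL HRP added. H2O2-derived resorufin fluorescence (ex 544/em 590) followed 1–2 h; IC50 from four-parameter fit of rate inhibition.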

[2] = target: T2, recombinant human MAO-A (monoamine oxidase-A) (Homo sapiens, UniProt P21397); test: Activity evaluation on recombinant human MAO-A (Amplex Red/HRP-coupled assay, 0.5 mM tyramine substrate); conditions: 0.5 mM tyramine substrate, read-out: Inhibitory Activity (IC50, nM) MAO-A
T2 construct: purchased Sigma-Aldrich
T2 sequence (P21397 1-527): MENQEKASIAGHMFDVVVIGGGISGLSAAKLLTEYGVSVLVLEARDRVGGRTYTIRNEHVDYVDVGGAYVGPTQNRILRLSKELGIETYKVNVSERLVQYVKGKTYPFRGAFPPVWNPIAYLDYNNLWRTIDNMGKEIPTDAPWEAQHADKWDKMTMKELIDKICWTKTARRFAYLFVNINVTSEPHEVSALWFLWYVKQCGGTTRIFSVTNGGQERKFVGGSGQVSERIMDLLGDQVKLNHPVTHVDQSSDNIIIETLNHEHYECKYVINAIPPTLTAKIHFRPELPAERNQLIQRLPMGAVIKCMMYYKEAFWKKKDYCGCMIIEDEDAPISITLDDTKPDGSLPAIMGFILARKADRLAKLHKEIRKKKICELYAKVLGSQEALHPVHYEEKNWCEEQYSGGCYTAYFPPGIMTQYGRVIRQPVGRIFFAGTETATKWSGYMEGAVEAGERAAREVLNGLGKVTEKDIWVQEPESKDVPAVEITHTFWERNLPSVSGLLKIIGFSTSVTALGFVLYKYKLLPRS
Summary of the method: (§1)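 Enzyme was preincubated with compounds (8-point 1:3 series, final DMSO <1%) 30 min at 37 °C in 50 mM sodium phosphate pH 7.4, then given 200 uM Amplex Red and 1 U/mL HRP with substrate. H2O2-derived resorufin fluorescence (ex 544/em 590 nm) was followed over 1–2 h; IC50 came from 4-parameter logistic fits of signal-rate inhibition versus DMSO control.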

[3] = target: T3, recombinant human MAO-B (monoamine oxidase-B) (Homo sapiens, UniProt P27338); test: Activity evaluation on recombinant human MAO-B (Amplex Red/HRP-coupled assay, 1 mM benzylamine substrate); conditions: 1 mM benzylamine substrate, read-out: Inhibitory Activity (IC50, nM) MAO-B
T3 construct: purchased Sigma-Aldrich
T3 sequence (P27338 1-520): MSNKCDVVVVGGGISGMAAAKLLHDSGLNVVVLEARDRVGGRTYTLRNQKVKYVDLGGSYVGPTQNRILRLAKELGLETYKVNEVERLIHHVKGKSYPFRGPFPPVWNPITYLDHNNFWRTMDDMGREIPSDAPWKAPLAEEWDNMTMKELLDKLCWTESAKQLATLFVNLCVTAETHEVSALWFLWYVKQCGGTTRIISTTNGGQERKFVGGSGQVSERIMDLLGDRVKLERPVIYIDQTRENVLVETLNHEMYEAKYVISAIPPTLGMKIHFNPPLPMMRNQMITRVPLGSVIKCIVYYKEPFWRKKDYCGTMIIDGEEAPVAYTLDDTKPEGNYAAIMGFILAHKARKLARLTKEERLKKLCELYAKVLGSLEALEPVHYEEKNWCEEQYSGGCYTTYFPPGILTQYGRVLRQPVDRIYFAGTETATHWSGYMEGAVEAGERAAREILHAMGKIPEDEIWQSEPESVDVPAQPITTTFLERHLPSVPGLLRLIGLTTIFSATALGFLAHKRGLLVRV
Summary of the method: as §1

[4] = target: T4, recombinant human DAO (diamine oxidase) (Homo sapiens, UniProt P19801); test: Activity evaluation on recombinant human DAO (Amplex Red/HRP-coupled assay, 1 mM putrescine substrate); conditions: 1 mM putrescine substrate, read-out: Inhibitory Activity (IC50, nM) DAO
T4 construct: purchased R&D systems
T4 sequence (P19801 20-751): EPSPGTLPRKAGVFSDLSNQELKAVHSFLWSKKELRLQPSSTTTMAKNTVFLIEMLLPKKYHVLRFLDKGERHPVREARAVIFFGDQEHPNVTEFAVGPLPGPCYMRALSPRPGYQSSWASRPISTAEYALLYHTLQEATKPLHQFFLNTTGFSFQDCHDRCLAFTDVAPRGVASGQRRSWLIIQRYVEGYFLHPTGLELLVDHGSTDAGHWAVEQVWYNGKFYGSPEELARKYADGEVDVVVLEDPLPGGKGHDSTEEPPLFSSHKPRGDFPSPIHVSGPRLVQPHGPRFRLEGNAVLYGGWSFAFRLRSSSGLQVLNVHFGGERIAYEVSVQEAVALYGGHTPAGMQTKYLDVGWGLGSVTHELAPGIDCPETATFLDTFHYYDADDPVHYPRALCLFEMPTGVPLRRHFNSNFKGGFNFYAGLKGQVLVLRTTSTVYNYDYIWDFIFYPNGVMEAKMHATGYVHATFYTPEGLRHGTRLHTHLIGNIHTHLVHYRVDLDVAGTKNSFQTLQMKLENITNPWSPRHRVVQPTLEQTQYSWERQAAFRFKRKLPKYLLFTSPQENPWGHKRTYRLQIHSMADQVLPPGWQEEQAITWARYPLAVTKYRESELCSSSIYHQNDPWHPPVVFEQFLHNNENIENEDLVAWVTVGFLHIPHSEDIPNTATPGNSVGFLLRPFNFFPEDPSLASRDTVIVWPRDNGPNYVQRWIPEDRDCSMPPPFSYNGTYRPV
Summary of the method: as §1

Row | Structure (SMILES) | IC50 [1] [nM] | IC50 [2] [nM] | IC50 [3] [nM] | IC50 [4] [nM]
1 | Cc1cc(C#Cc2ccc3c(c2)NCCO3)cnc1-n1cnn(CC(CN)=C(F)F)c1=O [Example 243, 2-[2-(aminomethyl)-3,3-difluoro-allyl]-4-[5-[2-(3,4-dihydro-2H-1,4-benzoxazin-6-yl)ethynyl]-3-methyl-2-pyridyl]-1,2,4-triazol-3-one Ditrifluoroacetate] | 0.9 | 32700 | 2200 | 4600
2 | Cc1cc(C#Cc2cnc3c(c2)NCCO3)cnc1-n1cnn(CC(CN)=C(F)F)c1=O [Example 244, 2-[2-(aminomethyl)-3,3-difluoro-allyl]-4-[5-[2-(2,3-dihydro-1H-pyrido[2,3-b][1,4]oxazin-7-yl)ethynyl]-3-methyl-2-pyridyl]-1,2,4-triazol-3-one ditrifluoroacetate] | 0.8 | > 100000 | 37000 | 9000
3 | Cc1cc(C#Cc2cnc3c(c2)OCCN3)cnc1-n1cnn(CC(CN)=C(F)F)c1=O [Example 245, 2-[2-(aminomethyl)-3,3-difluoro-allyl]-4-[5-[2-(3,4-dihydro-2H-pyrido[3,2-b][1,4]oxazin-7-yl)ethynyl]-3-methyl-2-pyridyl]-1,2,4-triazol-3-one ditrifluoroacetate] | 2.7 | > 100000 | 15000 | 14000
4 | Cc1cc(C#Cc2ccc3c(n2)OCCN3)cnc1-n1cnn(CC(CN)=C(F)F)c1=O [Example 246, 2-[2-(aminomethyl)-3,3-difluoro-allyl]-4-[5-[2-(2,3-dihydro-1H-pyrido[2,3-b][1,4]oxazin-6-yl)ethynyl]-3-methyl-2-pyridyl]-1,2,4-triazol-3-one ditrifluoroacetate] | 2.3 | > 100000 | 120000 | 59000
5 | Cc1cc(C#Cc2cnc3c(c2)NC(=O)CO3)cnc1-n1cnn(CC(CN)=C(F)F)c1=O [Example 247, 7-[2-[6-[1-[2-(aminomethyl)-3,3-difluoro-allyl]-5-oxo-1,2,4-triazol-4-yl]-5-methyl-3-pyridyl]ethynyl]-1H-pyrido[2,3-b][1,4]oxazin-2-one Trifluoroacetate] | 0.3 | > 100000 | > 100000 | 43000
6 | Cc1cc(C#Cc2cnc3c(c2)OCC(=O)N3)cnc1-n1cnn(CC(CN)=C(F)F)c1=O [Example 248, 7-[2-[6-[1-[2-(aminomethyl)-3,3-difluoro-allyl]-5-oxo-1,2,4-triazol-4-yl]-5-methyl-3-pyridyl]ethynyl]-4H-pyrido[3,2-b][1,4]oxazin-3-one trifluoroacetate] | 2.7 | > 100000 | 14000 | > 100000
7 | Cc1cc(C#Cc2ccc3c(c2)CCC(=O)N3)cnc1-n1cnn(CC(CN)=C(F)F)c1=O [Example 249, 6-[2-[6-[1-[2-(aminomethyl)-3,3-difluoro-allyl]-5-oxo-1,2,4-triazol-4-yl]-5-methyl-3-pyridyl]ethynyl]-3,4-dihydro-1H-quinolin-2-one Trifluoroacetate] | 0.9 | > 100000 | 3100 | 3900
8 | Cc1cc(-c2cnn(C(F)F)c2)cnc1-n1cnn(CC(CN)=C(F)F)c1=O [Example 251, 2-[2-(aminomethyl)-3,3-difluoro-allyl]-4-[5-[1-(difluoromethyl)pyrazol-4-yl]-3-methyl-2-pyridyl]-1,2,4-triazol-3-one Trifluoroacetate] | 1.5 | > 100000 | 18000 | 19000

Other lines, results leading:

Row | IC50 [1] [nM] | IC50 [2] [nM] | IC50 [3] [nM] | IC50 [4] [nM] | Structure (SMILES)
9 | 0.2 | > 100000 | > 100000 | 4300 | Cc1cc(-c2ccc3c(c2)CN(C)C(=O)N3)cnc1-n1cnn(CC(CN)=C(F)F)c1=O [Example 250, 6-[6-[1-[2-(aminomethyl)-3,3-difluoro-allyl]-5-oxo-1,2,4-triazol-4-yl]-5-methyl-3-pyridyl]-3-methyl-1,4-dihydroquinazolin-2-one Trifluoroacetate]
10 | 1 | > 100000 | 35000 | 17000 | Cc1cc(-c2cnn(C(C)C)c2)cnc1-n1cnn(CC(CN)=C(F)F)c1=O [Example 252, 2-[2-(aminomethyl)-3,3-difluoro-allyl]-4-[5-(1-isopropylpyrazol-4-yl)-3-methyl-2-pyridyl]-1,2,4-triazol-3-one Trifluoroacetate]
11 | 2.8 | > 100000 | > 100000 | 8700 | Cc1c(-c2ccc(S(C)(=O)=O)cc2)cccc1-n1cnn(CC(CN)=C(F)F)c1=O [Example 253, 2-[2-(aminomethyl)-3,3-difluoro-allyl]-4-[2-methyl-3-(4-methylsulfonylphenyl)phenyl]-1,2,4-triazol-3-one Trifluoroacetate]
12 | 8 | > 100000 | > 100000 | > 100000 | Cc1c(-c2ccc(N3CCNCC3)cc2)cccc1-n1cnn(CC(CN)=C(F)F)c1=O [Example 254, 2-[2-(aminomethyl)-3,3-difluoro-allyl]-4-[2-methyl-3-(4-piperazin-1-ylphenyl)phenyl]-1,2,4-triazol-3-one Ditrifluoroacetate]
